In patent EP4722219A1 (Gan & Lee Pharmaceuticals Co., Ltd., priority 2023, dated 2024):
Where a chain is given by its changes, count along the chain named. Each block holds one molecule with its values, some of them ahead of it.

Experiments:
Format in all cases: cell-based
[1] = tested on: T-47D cells; assay: Inhibition of cell proliferation in T-47D cells (CCK-8); conditions: 6 days treatment, CCK-8 cell viability
Experimental: Test Example 2 Inhibitory effect of PROTAC compounds provided by the present invention on cell proliferation in T-47D cells
The complete culture medium required for T-47D cells is 1640 (ATCC, Product number: A10491-01) basal culture medium containing 10% fetal bovine serum. T-47D cells were seeded in 96-well plates at a density of 3,000 cells/well, and different concentrations of PROTAC compounds 1-55 provided in the examples of the present invention and positive control sample ARV-471 (source: Inokai) were prepared to treat the cells and incubated at 37 °C, 5% CO2 cell culture incubator for 6 days. According to the manufacturer's instructions, cell viability was detected using a CCK-8 kit (Beyotime, Product number: C0040). The IC50 of each compound after treating for 6 days was calculated using GraphPadPrism software based on the inhibition rate. Table 2 Inhibition IC50 value of T-47D cell proliferation by PROTAC compounds provided by the present invention and positive control sample

[2] = tested on: MCF-7 cells; assay: Inhibition of cell proliferation in MCF-7 cells (CCK-8); conditions: MCF-7 cell proliferation, 6 days treatment
Experimental: Test Example 3 Inhibitory effect of PROTAC compounds provided by the present invention on cell proliferation in MCF-7 cells
The complete culture medium required for MCF-7 cells (source ATCC) is DMEM (gibco, Product number: 11995-065) basal culture medium containing 10% fetal bovine serum. MCF-7 cells were seeded in 96-well plates at a density of 800 cells/well, and different concentrations of PROTAC compounds 1-55 provided in the examples of the present invention and positive control sample ARV-471 (source: Inokai) were prepared to treat the cells and incubated at 37 °C, 5% CO2 cell culture incubator for 6 days. According to the manufacturer's instructions, cell viability was detected using a CCK-8 kit (Beyotime, Product number: C0040). The IC50 of each PROTAC compound after treating for 6 days was calculated using GraphPadPrism software based on the inhibition rate. Table 3 Inhibition IC50 value of MCF-7 cell proliferation by PROTAC compounds of the present invention and positive control sample

[3] = target: T1, AR protein (Homo sapiens, UniProt P10275, T878A); assay: AR protein degradation in LNCaP cells (Western blot); conditions: 8 hours
T1 construct: host or cells: LNCaP FGC
T1 sequence (P10275 1-920 T878A): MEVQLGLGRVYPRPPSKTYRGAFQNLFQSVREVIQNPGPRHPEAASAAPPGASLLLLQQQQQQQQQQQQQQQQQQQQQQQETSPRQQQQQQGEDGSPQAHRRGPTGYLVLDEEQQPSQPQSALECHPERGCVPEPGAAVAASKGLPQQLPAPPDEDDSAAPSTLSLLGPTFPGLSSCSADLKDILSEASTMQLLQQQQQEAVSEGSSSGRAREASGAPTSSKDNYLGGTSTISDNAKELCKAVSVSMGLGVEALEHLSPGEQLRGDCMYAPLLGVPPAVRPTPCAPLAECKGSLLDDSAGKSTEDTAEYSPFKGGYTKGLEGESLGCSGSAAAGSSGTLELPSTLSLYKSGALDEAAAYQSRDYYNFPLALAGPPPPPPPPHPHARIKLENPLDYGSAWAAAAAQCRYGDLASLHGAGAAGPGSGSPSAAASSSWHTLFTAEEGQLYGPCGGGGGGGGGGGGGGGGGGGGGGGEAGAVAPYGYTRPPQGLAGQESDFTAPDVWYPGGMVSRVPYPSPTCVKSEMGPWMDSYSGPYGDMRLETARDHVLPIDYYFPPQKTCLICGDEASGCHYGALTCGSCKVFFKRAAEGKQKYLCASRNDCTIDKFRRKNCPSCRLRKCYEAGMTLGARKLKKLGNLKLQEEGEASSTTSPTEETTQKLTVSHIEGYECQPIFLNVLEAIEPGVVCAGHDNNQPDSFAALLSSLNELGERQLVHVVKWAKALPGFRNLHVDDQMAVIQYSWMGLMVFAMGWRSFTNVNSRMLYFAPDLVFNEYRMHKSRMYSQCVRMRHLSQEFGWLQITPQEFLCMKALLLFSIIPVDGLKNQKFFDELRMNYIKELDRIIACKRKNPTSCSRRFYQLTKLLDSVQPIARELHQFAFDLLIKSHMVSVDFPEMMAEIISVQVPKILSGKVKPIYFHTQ
Experimental: At the same time, the corresponding solvent control was set and cultured for 8 hours. After 8 hours of culture, the culture medium was removed, the cells were washed with PBS, and RIPA lysis buffer containing 1% Protease Inhibitor Cocktail was added. After lysis and centrifugation, the total protein extract was obtained, and the protein concentration in the extract was detected by BCA method. Protein electrophoresis was performed using SDS-PAGE, and then the protein was transferred to a PVDF (Millipore Sigma catalog number PSRP010R5) membrane at a constant voltage of 100V for 60 minutes. The PVDF membrane was placed in a 5% milk powder 1 ×TBST solution and blocked at room temperature for 1 hour. […] The primary antibody solution was discarded and the PVDF membrane was washed with 1×TBST for 5 minutes each time, for three times. […] The secondary antibody solution was discarded and the PVDF membrane was washed with 1 ×TBST for 5 minutes each time, for three times. A dual-color infrared laser imaging system (Licor catalog number Odyssey CLX) was used for Western membrane imaging. The Image Studio software was used to analyze the grayscale of the bands. GAPDH protein bands were also detected for each sample as the reference. The AR protein degradation rate of the compound and the positive control sample was calculated based on the grayscale of the protein bands.

[4] = target: T2, AR protein (Homo sapiens, UniProt P10275); assay: AR protein degradation in VCaP cells (Western blot); conditions: 8h
T2 construct: host or cells: VCaP
T2 sequence (P10275 1-920): T1 sequence (P10275 1-920 T878A) with A878T
Experimental: The degradation activity of the compounds disclosed in the present invention on AR protein in VCaP cells (cell source: ATCC)
The AR-positive human prostate cancer cells VCaP cultured in DMEM (GiBco catalog number 11995-065) containing 10% FBS (Hyclone catalog number SH30406.05) was inoculated in a six-well microplate (Thermo catalog number 140675) at a concentration of 3×10^5 cells/ well. After being cultured overnight in a carbon dioxide incubator (ESCO), the prepared compound of the present invention and the positive control sample ARV-766 (Annaiji) solution of different concentrations were added at a volume of 1 µL/well to make the final concentrations of the compound and the positive control sample reach 5nM and 0.5nM, respectively. At the same time, the corresponding solvent control was set and cultured for 8h. After 8h of culture, the culture medium was removed, and the cells were washed with PBS. RIPA lysis buffer containing 1% Protease Inhibitor Cocktail was added. After lysis and centrifugation, a total protein extract was obtained, and the protein concentration in the extract was detected by BCA method. Protein electrophoresis was performed using SDS-PAGE, and then the protein was transferred to a PVDF (Millipore Sigma catalog number PSRP010R5) membrane at a constant voltage of 100V for 60min. The PVDF membrane was placed in a 5% milk powder 1×TBST solution and blocked at room temperature for 1h. The primary antibody solution (Anti-Androgen receptor, Cell Signaling Technology catalog number: 5153S; 1:2000 dilution) was prepared and was incubated at 4°C overnight. The primary antibody solution was discarded and the PVDF membrane was washed with 1×TBST for 5 minutes each time, for three times. The secondary antibody solution (Thermo catalog number SA5-35571; 1:7500 dilution) was prepared and was incubated at room temperature for 1 hour. The secondary antibody solution was discarded and the PVDF membrane was washed with 1×TBST for 5 minutes each time, for three times. A dual-color infrared laser imaging system (Licor catalog number Odyssey CLX) was used for Western membrane imaging. Image Studio software was used to analyze the grayscale of the bands. GAPDH protein bands were also detected for each sample as the reference. The AR protein degradation rate of the compound and the positive control sample was calculated based on the grayscale of the protein bands.
Table 7 Degradation rate of AR protein in VCaP cells by the compounds disclosed in the present invention

Compound: O=C1CCC(N2Cc3c(ccc4c3OCC43CCC4(CCN(C[C@H]5CC[C@@H](OC6CCN(c7ccc([C@@H]8c9ccc(O)cc9CC[C@@H]8c8ccccc8)cc7)CC6)CC5)CC4)CC3)C2=O)C(=O)N1 (stereo partly drawn) [ER-P-79, 3-(1"-(((1S,4S)-4-((1-(4-((1R,2S)-6-hydroxy-2-phenyl-1,2,3,4-tetrahydronaphthalen-1-yl)phenyl)piperidin-4-yl)oxy)cyclohexyl)methyl)-6-oxo-6,8-dihydro-2H,7H-dispiro[furo[2,3-e]isoindole-3,1'-cyclohexane-4',4"-piperidin]-7-yl)piperidine-2,6-dione]
- IC50 [1]: 8.46 nM
- IC50 [2]: 63.4 nM

Compound: Cn1c(=O)n(C2CCC(=O)NC2=O)c2ccc3c(c21)OCC31CCN(CC2CC(OC3CCN(c4ccc([C@@H]5c6ccc(O)cc6CC[C@@H]5c5ccccc5)cc4)CC3)C2)CC1 (stereo partly drawn) [ER-P-80, 3-(1'-(((1S,3s)-3-((1-(4-((1R,2S)-6-hydroxy-2-phenyl-1,2,3,4-tetrahydronaphthalen-1-yl)phenyl)piperidin-4-yl)oxy)cyclobutyl)methyl)-1-methyl-2-oxo-1,2-dihydro-3H,7H-spiro[benzofuro[6,7-d]imidazole-6,4'-piperidin]-3-yl)piperidine-2,6-dione]
- IC50 [1]: 0.9 nM

- IC50 ([1]; Homo sapiens, T47D, 144 h): 1.18 nM
- IC50 ([2]; Homo sapiens, MCF7, 144 h): 8.27 nM
Compound: Cn1c(=O)n(C2CCC(=O)NC2=O)c2ccc3c(c21)OCC31CCN(C(=O)CN2CCC3(CCN(c4ccc([C@@H]5c6ccc(O)cc6CC[C@@H]5c5ccccc5)cc4)CC3)C2)CC1 (stereo partly drawn) [ER-P-68, 3-(1'-(2-(8-(4-((1R,2S)-6-hydroxy-2-phenyl-1,2,3,4-tetrahydronaphthalen-1-yl)phenyl)-2,8-diazaspiro[4.5]decan-2-yl)acetyl)-1-methyl-2-oxo-1,2-dihydro-3H,7H-spiro[benzofuro[6,7-d]imidazole-6,4'-piperidin]-3-yl)piperidine-2,6-dione]

Compound: O=C1CCC(Nc2ccc3c(c2)OCC32CCN(CC3CC(OC4CCN(c5ccc([C@@H]6c7ccc(O)cc7CC[C@@H]6c6ccccc6)cc5)CC4)C3)CC2)C(=O)N1 (stereo partly drawn) [ER-P-92, 3-((1'-(((1S,3s)-3-((1-(4-((1R,2S)-6-hydroxy-2-phenyl-1,2,3,4-tetrahydronaphthalen-1-yl)phenyl)piperidin-4-yl)oxy)cyclobutyl)methyl)-2H-spiro[benzofuran-3,4'-piperidin]-6-yl)amino)piperidine-2,6-dione]
- IC50 [1]: 4.56 nM

Compound: COc1cc(O[C@H]2C(C)(C)[C@H](NC(=O)c3ccc(N4CCC(CN5CCC6(CC5)COc5c6ccc6c5n(C)c(=O)n6C5CCC(=O)NC5=O)CC4)nn3)C2(C)C)ccc1C#N (relative stereo) [A-P-27]
- Degradation of AR protein in LNCaP cells, 10 nM (%) ([3]; 10 nM): 43%
- Degradation of AR protein in LNCaP cells, 100 nM (%) ([3]; 100 nM): 43%
- Degradation rate of AR protein in VCaP cells ([4]; 0.5 nM): 78%
- Degradation rate of AR protein in VCaP cells ([4]; 5 nM): 80%

Compound: COc1cc(O[C@H]2CC[C@H](NC(=O)c3ccc(N4CCC5(CC4)CC(N4CCC6(CC4)COc4cc7c(cc46)n(C)c(=O)n7C4CCC(=O)NC4=O)C5)nn3)CC2)ccc1C#N (stereo partly drawn) [A-P-11]
- percent AR protein degradation at a fixed concentration at 0.01 µM ([3]; 10 nM): 76%
- percent AR protein degradation at a fixed concentration at 0.1 µM ([3]; 100 nM): 32%
